Data reported in US20110033525A1, “Diterpene Glycosides as Natural Solubilizers” (priority 2008, published 2011).
In brackets after ≈: the same amount, converted by molar mass. Where two headings read alike, the source gives them in different places.

What was measured:
physchem = conditions: for Aqueous drug concentration, 10% RUBUSOSIDE: Table 8, 10% w/v rubusoside (SFA) water solution; for Concentration dissolved in rubusoside water solution: 20 mg rubusoside in 1 ml water
Protocol: Solubility test methods: A compound with low solubility was selected and weighed into multiple centrifuge tubes. Each experimental tube received a known amount of the solubilizing agent being tested. The control tubes remained only with the compound. The same volume, 1 mL, unless otherwise indicated, of deionized and distilled water was added to each tube. Alternatively, a set percentage of water solutions containing the solubilizer to be tested (e.g., 5% w/v or 10% w/v) were prepared separately. In these cases, the solubilizer-water solutions were added directly to the tubes containing the low-solubility compound. The tubes were then vortexed briefly and then sonicated for 60 min at temperature of 50° C. unless otherwise indicated. After sonication, the tubes were placed on an orbital shaker at a speed of 80 rpm in an incubator set at 25° C. for at least 24 hr. The tubes were then centrifuged at 4000 rpm for 10 min. The supernatant solution was passed through a 0.2 μm or 0.45 μm filter and analyzed for the concentration of the low-solubility compound, and sometimes the solubilizing compound, by HPLC or UV-Vis spectrophotometer.
The system was computer controlled, and the results were analyzed using Empower software. Calibrations curves were constructed using known concentrations of the compounds and were used to quantify the concentrations of the compounds dissolved in solution. A more complete description of the HPLC procedure for some of the diterpene glycosides is found in G. Chou et al., “Quantitative and fingerprint analyses of Chinese sweet tea plant (Rubus suavissimus S. Lee),” J. Agric. Food Chem., vol.
The ratio of peak areas was used to calculate the increase in water solubility in the absence or presence of solubilizers.

[1] = cited from earlier work; for Aqueous drug concentration, AQUEOUS SOLUTION: Table 8, without rubusoside, same values as published ones of Table 1; for Water solubility in words: The Merck Index (1996) or Material Safety Data Sheets
[2] = test system: MDA-M231 breast cancer cells; conditions: current drug formulation; Nornoo 2008; read-out: Concentration to kill 50% of cells; cited from earlier work
PC3 cells = conditions: existing formulation, Danesi 1995, Rowinsky 1990, read-out: Reported IC50 for PC3 cells, cited from earlier work
[3] = test system: PANC-1 (human pancreatic) cancer cells; experiment: MTT cellular proliferation assay, PANC-1; assay type: cell-based; conditions: 72 hr
Protocol: (§1) Paclitaxel and camptothecin were purchased from Sigma Chemicals (St. Louis, Mo.). […] The solution was sonicated for 60 min at 69° C. and then placed in a shaking incubator at 25° C. for 48 hr. The solution was then centrifuged at 4,000×g, and the supernatant was filtered with a 0.2 μm nylon filter. […] The sample was labeled as TXL100. To make an aqueous solution of camptothecin, about 5 mg of camptothecin was weighed into a solution containing 70 mg/ml rubusoside. The solution was sonicated for 60 min at 69° C., and then placed in a shaking incubator at 25° C. for 48 hr. The solution was then centrifuged at 4,000×g and the supernatant was filtered with a 0.2 μm nylon filter. This aqueous solution was analyzed by HPLC and contained 10 μg/ml camptothecin in the presence of 70 mg/ml rubusoside. This sample was labeled as CPT70.
(§2) Inhibition of cellular proliferation was assessed by a MTT assay. Each well of the 96-well plate contained 10^4 cells/100 μl cell culture growth medium. The cells were seeded onto the plate and placed in a 37° C. incubator overnight. On the next day, the compound treatment was set up. A series of dilutions using phosphate buffered saline (PBS) containing 10% FBS (fetal bovine serum) with either the test compound or vehicle with cell culture growth medium was made for each well with a final volume of 200 μl. Each treatment had 8 wells in a column. Prior to the addition of the test compound, the existing medium in each of the wells was aspirated completely and carefully to avoid losing cells. A series of dilutions of the aqueous samples were made ranging from 20 μl to 0.078 μl supplemented with culture media to make a final volume of 200 μl for each well. The plate was placed in a 37° C. incubator for 72 hr. On the day of the staining, MTT solution (3 mg Thiazolyl Blue Tetrazolium Bromide/ml PBS was prepared. To each well, 25 μl MTT solution was directly added. The plate was then incubated for 90 to 120 min. Afterwards, the wells were aspirated completely and carefully. Finally, 50 μl DMSO (dimethyl sulfoxide) was added to each well. The plate was read at 650 nm on a microplate reader. Cell proliferations were calculated as % of the control using the vehicle treatment as the control.
(§3) Calculations of IC50 in molar concentrations were as follows. […] Thus, 1 μl/ml of TXL solution in the culture medium equaled 17 ng TXL/ml culture medium, which equaled 19.9 nM based on the molecular weight of 854.
(§4) CPT: The sample concentration of CPT was 10 μg/ml=10 ng/μl, and the molecular weight of camptothecin is 348. Thus, 1 μl/ml of CPT solution in the culture medium equaled 10 ng CPT/ml culture medium, which equaled 28.7 nM based on the molecular weight of 348.

[4] = test system: PC3 (human prostate) cancer cells; experiment: MTT cellular proliferation assay, PC3; assay type: cell-based; conditions: 72 hr
Protocol: as §1, §2, §3, §4

[5] = Estimated safe daily consumption of steviol glycosides
Description: Some diterpene glycosides have been approved by the FDA as sweeteners (e.g., rebaudioside A).

[6] = 25 °C, aqueous with cosolvent or surfactant or cyclodextrin, thermodynamic from solid, Solubility in water with solubilizer
[7] = 25 °C, aqueous with cosolvent or surfactant or cyclodextrin, thermodynamic from solid, Solubility in water with solubilizer, natural solubilizer (rubusoside) 10% w/v (100 mg in 1 ml)
[8] = volume of aqueous sample per ml culture medium
[9] = Homo sapiens, converted from μl/ml, read-out: IC50

Cc1c(C)c2c(c(C)c1O)CC[C@@](C)(CCC[C@H](C)CCC[C@H](C)CCCC(C)C)O2 [Alpha-Tocopherol (VE), Alpha-tocopherol]
Solubility in water with solubilizer (physchem): 13,250 μg/mL | Solubility increase factor (physchem): Many

C[C@@H]1[C@H](O)[C@@H](C)/C=C/C=C/C=C/C=C/C=C/C=C/C=C/[C@H](O[C@@H]2O[C@H](C)[C@@H](O)[C@H](N)[C@@H]2O)C[C@@H]2O[C@](O)(C[C@@H](O)C[C@@H](O)[C@H](O)CC[C@@H](O)C[C@@H](O)CC(=O)O[C@H]1C)C[C@H](O)[C@H]2C(=O)O [Amphotericin B, reference compound]
Aqueous drug concentration, 10% RUBUSOSIDE (physchem): 200 µg/mL | Aqueous drug concentration, AQUEOUS SOLUTION [1]: 82 µg/mL

C[C@@H]1CC[C@H]2[C@@H](C)C(=O)O[C@@H]3O[C@@]4(C)CC[C@@H]1[C@]32OO4 [Artemisinin, reference compound]
Solubility increase factor (physchem): 5 | solubility (physchem; [6]): 280 µg/mL (≈ 0.992 mM)

COc1cc(CNC(=O)CCCC/C=C/C(C)C)ccc1O [Capsaicin, reference compound]
Concentration in water without rubusoside (control sample) (physchem): 57 µg/mL | Solubility increase factor (physchem): 86 | Concentration dissolved in rubusoside water solution (physchem): 589 µg/mL | solubility (physchem; [7]): 4920 µg/mL (≈ 16.1 mM) | solubility (physchem; 25 °C, water, thermodynamic from solid, Solubility): 57 µg/mL (≈ 0.187 mM)

Cc1ccc(-c2cc(C(F)(F)F)nn2-c2ccc(S(N)(=O)=O)cc2)cc1 [Celecoxib, reference compound]
Concentration in water without rubusoside (control sample) (physchem): not detected | Solubility increase factor (physchem): Many | solubility (physchem; [6]): 488 µg/mL (≈ 1.28 mM)

COC1=C(OC)C(=O)C(C/C=C(\C)CC/C=C(\C)CC/C=C(\C)CC/C=C(\C)CC/C=C(\C)CC/C=C(\C)CC/C=C(\C)CC/C=C(\C)CC/C=C(\C)CCC=C(C)C)=C(C)C1=O [Coenzyme Q10]
Solubility in water with solubilizer (physchem): 111 µg/mL | Solubility increase factor (physchem): 1110 | solubility (physchem; [6]): 111 µg/mL (≈ 0.129 mM)

CC[C@H]1OC(=O)[C@H](C)[C@@H](O[C@H]2C[C@@](C)(OC)[C@@H](O)[C@H](C)O2)[C@H](C)[C@@H](O[C@@H]2O[C@H](C)C[C@H](N(C)C)[C@H]2O)[C@](C)(O)C[C@@H](C)C(=O)[C@H](C)[C@@H](O)[C@]1(C)O [Erythromycin, reference compound]
Solubility increase factor (physchem): 11 | solubility (physchem; [6]): 5330 µg/mL (≈ 7.27 mM)

O=C(O)c1cc(O)c(O)c(O)c1 [Gallic acid]
Solubility increase factor (physchem): 9.6 | Amount dissolved in 1 ml water (physchem; 400 mg rubusoside, 25° C.): 106 mg | Amount dissolved in 1 ml water (physchem; 800 mg rubusoside, 37° C.): 212 mg | Fold increase over amount dissolved in plain water (physchem; 800 mg rubusoside, 37° C.): 19.3 fold | solubility (physchem; [6]): 106000 µg/mL (≈ 623 mM)

CCC(C)n1ncn(-c2ccc(N3CCN(c4ccc(OCC5COC(Cn6cncn6)(c6ccc(Cl)cc6Cl)O5)cc4)CC3)cc2)c1=O (centres unmarked) [Itraconazole, reference compound]
Concentration in water without rubusoside (control sample) (physchem): not detected | Solubility in water with solubilizer (physchem): 21 µg/mL | Solubility increase factor (physchem): Many

C[C@@H]1[C@H](O)[C@@H](C)/C=C/C=C/CC/C=C/C=C/C=C/C=C/C(O[C@H]2O[C@H](C)[C@@H](O)[C@H](N)[C@@H]2O)CC2O[C@](O)(CC(O)C(O)CCC(O)CC(O)CC(O)CC(=O)O[C@H]1C)CC(O)C2C(=O)O (some centres unmarked) [Nystatin, reference compound]
Aqueous drug concentration, 10% RUBUSOSIDE (physchem): 1,100 μg/ml | Aqueous drug concentration, AQUEOUS SOLUTION [1]: 66 µg/mL

CC(=O)O[C@H]1C(=O)[C@@]2(C)[C@H]([C@H](OC(=O)c3ccccc3)[C@]3(O)C[C@H](OC(=O)[C@H](O)[C@@H](NC(=O)c4ccccc4)c4ccccc4)C(C)=C1C3(C)C)[C@]1(OC(C)=O)CO[C@@H]1C[C@@H]2O [Paclitaxel, reference compound]
Solubility in water with solubilizer (physchem): 10 µg/mL | Solubility increase factor (physchem): up to 877 | Concentration dissolved in rubusoside water solution (physchem): 0.35 µg/mL | IC50 [2]: > 1000 nM | IC50 (PC3 cells; listed as paclitaxel): 31.2 nM | IC50 (PC3 cells): 50 nM | IC50 [3, 8]: 0.24 μl/ml | IC50 [3, 9]: 4.9 nM | IC50 [4, 8]: 0.69 μl/ml | IC50 [4, 9]: 13.7 nM

COc1cc([C@@H]2c3cc4c(cc3[C@H](O)[C@H]3COC(=O)[C@H]23)OCO4)cc(OC)c1OC [Podophyllotoxin, reference compound]
solubility (physchem; 25 °C, aqueous with cosolvent or surfactant or cyclodextrin, thermodynamic from solid): 919 µg/mL (≈ 2.22 mM) | Water solubility in words [1]: nearly insoluble

CC(C)c1cccc(C(C)C)c1O [Propofol, reference compound]
Concentration in water without rubusoside (control sample) (physchem): no measurable propofol | Solubility increase factor (physchem): 74 | solubility (physchem; [6]): 11700 µg/mL (≈ 65.6 mM)

CO[C@H]1C[C@@H]2CC[C@@H](C)[C@@](O)(O2)C(=O)C(=O)N2CCCC[C@H]2C(=O)O[C@H]([C@H](C)C[C@@H]2CC[C@@H](O)[C@H](OC)C2)CC(=O)[C@H](C)/C=C(\C)[C@@H](O)[C@@H](OC)C(=O)[C@H](C)C[C@H](C)/C=C/C=C/C=C/1C [Rapamycin (Sirolimus), Rapamycin, reference compound]
Solubility increase factor (physchem): 92 | solubility (physchem; [6]): 240 µg/mL (≈ 0.263 mM) | Water solubility in words [1]: insoluble

C[C@@H]1O[C@@H](OC[C@H]2O[C@@H](Oc3c(-c4ccc(O)c(O)c4)oc4cc(O)cc(O)c4c3=O)[C@H](O)[C@@H](O)[C@@H]2O)[C@H](O)[C@H](O)[C@H]1O [Rutin]
solubility (physchem; [6]): 1750 µg/mL (≈ 2.87 mM) | Water solubility in words [1]: nearly insoluble

COc1cc(C2Oc3cc([C@H]4Oc5cc(O)cc(O)c5C(=O)[C@@H]4O)ccc3OC2CO)ccc1O (some centres unmarked) [Silybin (Silibinin), Silybin]
Solubility increase factor (physchem): Many | solubility (physchem; [6]): 150 µg/mL (≈ 0.311 mM)

Cc1coc2c1C(=O)C(=O)c1c-2ccc2c1CCCC2(C)C [Tanshinone IIA]
solubility (physchem; [7]): ~53.3 µg/mL (≈ 0.181 mM) | solubility (physchem; 25 °C, aqueous with cosolvent or surfactant or cyclodextrin, thermodynamic from solid, Solubility in water with solubilizer, natural solubilizer (rubusoside) 20% w/v (200 mg in 1 ml)): ~128 µg/mL (≈ 0.434 mM) | Water solubility in words [1]: nearly insoluble

C=C1C[C@@]23CC[C@H]4[C@@](C)(CCC[C@@]4(C)C(=O)O[C@@H]4O[C@H](CO)[C@@H](O)[C@H](O)[C@H]4O)[C@@H]2CC[C@]1(O[C@@H]1O[C@H](CO)[C@@H](O)[C@H](O)[C@H]1O)C3 [rubusoside, b-D-glucosyl ester of 13-O-b-D-glucosyl-steviol]
Water solubility (physchem): about 60 g/100 mL water | solubility (physchem; 25 °C, water, Solubility in water): ~400000 µg/mL (≈ 622 mM) | solubility (physchem; 37 °C, water, Solubility in water): ~800000 µg/mL (≈ 1240 mM) | Daily consumption that is safe and has no adverse effect [5]: 8 mg rubusoside/kg body weight | No-observed-effect level ([5]; estimate based on 383 mg/kg expressed as steviol): up to 766 mg rubusoside/kg body weight
